This is an account of results in patent US20250214991A1 (Oncopia Therapeutics, Inc. d/b/a/ SK Life Science Labs, priority 2022, published 2025).

One assay concerns the target CRBN/DDB1 (Homo sapiens (Human), UniProt Q96SW2). Nature of the assay: IC50 measurements for binding to CRBN/DDB1 (HTRF). The following applies: His tagged CRBN+DDB, Cy5-labeled Thalidomide probe, one hour. The gist of the method:
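Serially diluted compounds compete with a Cy5-labeled thalidomide tracer (60 nM) for His-tagged CRBN-DDB1 (2 nM), detected via anti-6His Tb cryptate (0.4 nM); buffer HEPES pH 7.5 with TCEP, Brij-35, NaCl, BSA. One-hour room-temperature incubation, HTRF signal read, IC50 by four-parameter curve.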
In general terms: Time-resolved FRET reads energy transfer from a long-lived donor to a nearby acceptor.

The target of assay [1] is T1, IKZF2 (Homo sapiens (Human), UniProt Q96SW2+Q9UKS7). Nature of the assay: In vitro IKZF2 Western Blot Assay in Jurkat cells. The class given is cell-based. Particulars: 24 hrs; for inhibition at 0.001 µM: read-out: IKZF2 degradation (%) @ μM 0.001; for inhibition at 0.01 µM: read-out: IKZF2 degradation (%) @ μM 0.01; for inhibition at 0.1 µM: read-out: IKZF2 degradation (%) @ μM 0.1; for inhibition at 1 µM: read-out: IKZF2 degradation (%) @ μM 1; for inhibition at 10 µM: read-out: IKZF2 degradation (%) @ μM 10. How it is done:
In vitro IKZF2 Western Blot Assay Jurkat cells (ATCC, Cat #HB-8065) were cultured in RPMI1640+10% FBS+1% P/S. Cells were treated at desired compound concentrations (0.001, 0.01, 0.1, 1, and 10 μM) and DMSO as vehicle control for 24 hrs. After 24 hr of treatment cells were collected by centrifugation and lysed in RIPA lysis buffer on ice for 10 min. After assessing protein concentration by BCA assay (Pierce), equal amounts of protein for each sample were loaded into 4-12% Bis-Tris gels (Invitrogen), transferred to PVDF membranes and immunoblotted with antibodies against IKZF2 and Actin (Cell Signaling). Membranes were developed on an Odyssey detection system (LI-COR Biosciences) after incubation with IRDye800-labeled goat anti-rabbit IgG and IRDye680-labeled goat anti-mouse IgG (LI-COR) secondary antibodies. Band intensities were quantified using ImageStudio software. Data was further analyzed using XLfit. Percentage of IKZF2 protein degradation: A (>50%); B (30-50%); C(<30%) (Table 2).
Background: In western blotting, separated proteins are transferred to a membrane and probed.

Assay [2] has as its target T1, IKZF2. Briefly: In vitro IKZF2 FACS Assay in Jurkat cells. In kind it is cell-based. The following applies: 24 hrs; for DC50: half maximal degradation concentration; for Dmax: maximal degradation percentage. How it is done: In vitro IKZF2 FACS Assay
DC50, A: <1 nM; B: 1-10 nM; C: 10-100 nM; D: 100-1000 nM; E: >1000 nM. Dmax, A: >80%; B: 60-80%; C: 40-60%; D: 20-40%; E: <20%.

The target of assay [3] is T1, IKZF2. Nature of the assay: In vitro IKZF2 HiBit Assay (HEK293T Flp-in-HiBiT cells). Particulars: HEK293T Flp-in-HiBiT cells, 6 hrs incubation; for DC50: read-out: IKZF2 HiBit DC50; for Dmax: HEK-293T, read-out: IKZF2 HiBit Dmax (%). In kind it is cell-based. The gist of the method: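 Remaining tagged Helios was read as lytic HiBiT/LgBiT luminescence normalized to DMSO, yielding binned DC50 and Dmax values. Treatment ran 6 h, with compounds at 11 three-fold doses diluted from 1 mM and 0.1% final DMSO. The cells were HEK293T Flp-in with CRISPR knock-in of HiBiT at the IKZF2 N-terminus.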
(In general: The HiBiT peptide binds its large partner to form an active luciferase.)

A further assay deals with IKZF1 (Homo sapiens (Human), UniProt Q13422+Q96SW2). Briefly: In vitro IKZF1 HiBit Assay (HEK293T Flp-in-HiBiT-IKZF1 stable cell line). In kind it is cell-based. The following applies: HEK293T Flp-in-HiBiT-IKZF1 stable cell line, 6 hrs incubation; for DC50: read-out: IKZF1 HiBit DC50; for Dmax: HEK-293T, read-out: IKZF1 HiBit Dmax (%). The gist of the method:
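Degradation was measured as loss of luminescence from the HiBiT-IKZF1 tag after 6 h compound treatment, with 0.1% final DMSO, in stable HEK293T Flp-in cells. Values were normalized to DMSO, giving the 50% degradation concentration and the maximal degradation range.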

The structures appear in SMILES notation.

T1 sequence (Q9UKS7 whole entry): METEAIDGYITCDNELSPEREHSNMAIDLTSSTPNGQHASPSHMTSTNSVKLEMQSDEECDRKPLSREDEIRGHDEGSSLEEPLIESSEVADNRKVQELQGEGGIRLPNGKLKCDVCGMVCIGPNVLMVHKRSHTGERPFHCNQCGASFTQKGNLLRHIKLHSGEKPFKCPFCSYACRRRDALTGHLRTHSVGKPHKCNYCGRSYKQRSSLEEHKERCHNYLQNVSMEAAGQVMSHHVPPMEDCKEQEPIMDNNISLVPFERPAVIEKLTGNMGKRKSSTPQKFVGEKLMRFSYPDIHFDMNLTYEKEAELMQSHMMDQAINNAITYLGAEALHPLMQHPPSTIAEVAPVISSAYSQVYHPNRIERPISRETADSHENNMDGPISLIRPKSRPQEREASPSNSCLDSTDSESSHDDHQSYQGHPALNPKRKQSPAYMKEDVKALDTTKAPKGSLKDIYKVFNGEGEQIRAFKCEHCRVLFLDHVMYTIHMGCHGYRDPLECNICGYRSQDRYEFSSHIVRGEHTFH
T1 sequence (Q96SW2 whole entry): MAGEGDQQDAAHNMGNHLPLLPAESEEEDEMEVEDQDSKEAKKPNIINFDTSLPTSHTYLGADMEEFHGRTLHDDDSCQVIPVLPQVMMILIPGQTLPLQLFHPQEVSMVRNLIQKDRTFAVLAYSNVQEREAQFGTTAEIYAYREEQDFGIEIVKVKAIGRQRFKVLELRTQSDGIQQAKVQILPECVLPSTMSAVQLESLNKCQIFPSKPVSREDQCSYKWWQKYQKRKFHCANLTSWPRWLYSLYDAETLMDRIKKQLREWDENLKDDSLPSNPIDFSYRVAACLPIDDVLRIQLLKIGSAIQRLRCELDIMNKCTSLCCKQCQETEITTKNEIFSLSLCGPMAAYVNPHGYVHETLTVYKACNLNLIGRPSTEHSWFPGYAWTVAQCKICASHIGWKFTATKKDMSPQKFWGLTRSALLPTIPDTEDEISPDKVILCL
T1 sequence (Q16531 2-1140 partner): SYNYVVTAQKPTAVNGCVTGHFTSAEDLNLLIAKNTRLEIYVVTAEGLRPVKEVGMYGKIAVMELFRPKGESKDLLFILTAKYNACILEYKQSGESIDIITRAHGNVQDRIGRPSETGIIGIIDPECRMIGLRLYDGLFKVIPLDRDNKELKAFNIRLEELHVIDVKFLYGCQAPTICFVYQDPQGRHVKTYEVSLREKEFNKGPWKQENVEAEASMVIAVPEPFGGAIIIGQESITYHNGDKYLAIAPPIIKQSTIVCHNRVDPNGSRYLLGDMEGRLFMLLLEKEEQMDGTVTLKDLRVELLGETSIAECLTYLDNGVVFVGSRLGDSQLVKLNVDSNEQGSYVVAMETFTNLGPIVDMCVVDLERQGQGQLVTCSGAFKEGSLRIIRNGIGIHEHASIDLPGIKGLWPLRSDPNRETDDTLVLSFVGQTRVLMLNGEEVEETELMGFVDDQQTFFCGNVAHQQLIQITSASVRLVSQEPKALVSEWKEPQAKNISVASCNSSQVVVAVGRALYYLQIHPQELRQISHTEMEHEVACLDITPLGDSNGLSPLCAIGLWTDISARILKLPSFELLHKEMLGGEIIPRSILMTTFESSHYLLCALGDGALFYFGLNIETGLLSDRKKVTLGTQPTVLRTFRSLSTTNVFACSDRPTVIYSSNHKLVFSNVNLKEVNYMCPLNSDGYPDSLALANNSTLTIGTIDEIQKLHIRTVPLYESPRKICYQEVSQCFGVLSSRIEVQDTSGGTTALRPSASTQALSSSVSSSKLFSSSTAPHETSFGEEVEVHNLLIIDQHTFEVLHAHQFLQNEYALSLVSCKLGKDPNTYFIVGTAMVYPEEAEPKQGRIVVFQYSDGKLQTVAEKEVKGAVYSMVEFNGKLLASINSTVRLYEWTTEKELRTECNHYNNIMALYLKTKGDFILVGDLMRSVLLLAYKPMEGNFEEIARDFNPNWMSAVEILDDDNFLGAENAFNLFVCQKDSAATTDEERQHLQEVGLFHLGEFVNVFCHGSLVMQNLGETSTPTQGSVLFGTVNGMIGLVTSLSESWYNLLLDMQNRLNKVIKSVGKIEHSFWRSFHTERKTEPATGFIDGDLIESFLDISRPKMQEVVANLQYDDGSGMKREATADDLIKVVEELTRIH
Sequence of CRBN/DDB1 (Q96SW2 whole entry, species assumed): as the sequence (Q96SW2 whole entry) above
Sequence of CRBN/DDB1 (Q16531 whole entry partner, species assumed): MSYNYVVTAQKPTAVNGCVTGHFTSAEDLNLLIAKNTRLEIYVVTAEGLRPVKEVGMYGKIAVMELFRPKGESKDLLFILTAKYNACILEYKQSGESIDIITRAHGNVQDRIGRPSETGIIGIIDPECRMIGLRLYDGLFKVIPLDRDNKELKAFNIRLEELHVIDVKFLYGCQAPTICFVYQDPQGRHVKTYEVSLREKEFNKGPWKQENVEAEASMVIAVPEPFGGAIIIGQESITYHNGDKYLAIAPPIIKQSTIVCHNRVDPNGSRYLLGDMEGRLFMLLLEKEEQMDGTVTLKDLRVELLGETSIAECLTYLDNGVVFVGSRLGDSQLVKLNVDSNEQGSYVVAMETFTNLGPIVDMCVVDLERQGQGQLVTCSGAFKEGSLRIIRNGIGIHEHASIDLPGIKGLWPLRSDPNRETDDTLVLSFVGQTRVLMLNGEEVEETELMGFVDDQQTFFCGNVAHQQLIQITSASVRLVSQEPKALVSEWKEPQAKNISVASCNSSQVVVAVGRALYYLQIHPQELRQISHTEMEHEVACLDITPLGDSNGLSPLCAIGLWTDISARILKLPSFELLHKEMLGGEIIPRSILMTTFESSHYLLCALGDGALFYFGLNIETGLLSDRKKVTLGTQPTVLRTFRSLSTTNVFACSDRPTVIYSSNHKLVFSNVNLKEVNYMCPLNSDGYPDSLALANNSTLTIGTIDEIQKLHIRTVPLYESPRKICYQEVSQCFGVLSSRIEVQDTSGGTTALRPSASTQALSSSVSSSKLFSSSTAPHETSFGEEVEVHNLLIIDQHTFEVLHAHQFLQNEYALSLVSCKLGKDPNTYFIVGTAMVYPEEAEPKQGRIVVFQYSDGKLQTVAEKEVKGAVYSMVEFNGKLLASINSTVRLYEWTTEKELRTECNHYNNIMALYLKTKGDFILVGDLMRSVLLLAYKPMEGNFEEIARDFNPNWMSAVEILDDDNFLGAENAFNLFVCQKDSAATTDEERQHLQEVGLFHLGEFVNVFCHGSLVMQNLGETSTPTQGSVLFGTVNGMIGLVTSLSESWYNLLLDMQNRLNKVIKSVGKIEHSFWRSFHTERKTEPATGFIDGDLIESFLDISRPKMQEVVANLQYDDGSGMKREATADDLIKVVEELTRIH
Sequence of IKZF1 (Q13422 whole entry): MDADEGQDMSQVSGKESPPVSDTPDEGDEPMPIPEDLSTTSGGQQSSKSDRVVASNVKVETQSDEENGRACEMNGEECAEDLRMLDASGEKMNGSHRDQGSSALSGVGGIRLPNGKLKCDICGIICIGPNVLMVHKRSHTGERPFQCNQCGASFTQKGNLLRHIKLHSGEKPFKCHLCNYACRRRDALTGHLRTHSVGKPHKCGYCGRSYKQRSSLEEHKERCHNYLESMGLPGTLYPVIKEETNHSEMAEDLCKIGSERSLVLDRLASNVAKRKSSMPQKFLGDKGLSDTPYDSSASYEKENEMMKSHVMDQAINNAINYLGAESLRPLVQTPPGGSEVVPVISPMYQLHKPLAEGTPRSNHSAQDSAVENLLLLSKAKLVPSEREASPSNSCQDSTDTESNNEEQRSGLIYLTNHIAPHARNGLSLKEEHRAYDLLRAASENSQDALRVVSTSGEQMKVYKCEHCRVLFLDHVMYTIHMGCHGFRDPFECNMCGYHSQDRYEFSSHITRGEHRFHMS
Sequence of IKZF1 (Q96SW2 whole entry): as the sequence (Q96SW2 whole entry) above
Sequence of IKZF1 (Q16531 2-1140 partner): as the sequence (Q16531 2-1140 partner) above

`O=C1CCC(N2Cc3cc(-c4cc(CN5CCCC5c5ccccc5)cn5ccnc45)ccc3C2=O)C(=O)N1` (centres unmarked) [Example 49, 3-(1-oxo-5-(6-((2-phenylpyrrolidin-1-yl)methyl)imidazo[1,2-a]pyridin-8-yl)isoindolin-2-yl) piperidine-2,6-dione]: the IC50 – broadly, the concentration that gives 50% inhibition – on CRBN/DDB1 was in the range of 100 to 500 nM. On IKZF2 [1], the inhibition at 0.001 µM is under 30%, the inhibition at 0.01 µM is under 30%, the inhibition at 0.1 µM is under 30% and the inhibition at 1 µM is under 30%. At IKZF2 [1], the inhibition at 10 µM was under 30%.
Regarding `O=C1CCC(N2Cc3cc(-c4cc(CNCCc5ccccc5Cl)cn5ccnc45)ccc3C2=O)C(=O)N1` (centres unmarked) [Example 44, 3-(5-(6-(((2-chlorophenethyl)amino)methyl)imidazo[1,2-a]pyridin-8-yl)-1-oxoisoindolin-2-yl) piperidine-2,6-dione], the IC50 at CRBN/DDB1 was in the range of 100 to 500 nM. Moreover, at IKZF2 [1], the inhibition at 0.001 µM is under 30%, the inhibition at 0.01 µM was under 30%, the inhibition at 0.1 µM is 30 to 50% and the inhibition at 1 µM was under 30%. Further, the inhibition at 10 µM on IKZF2 [1] fell in the range of 30 to 50%.
On CRBN/DDB1, `O=C1CCC(N2Cc3cc(-c4cc(CN5CC(c6ccccc6)C5)cn5ccnc45)ccc3C2=O)C(=O)N1` (centres unmarked) [Example 48, 3-(1-oxo-5-(6-((3-phenylazetidin-1-yl)methyl)imidazo[1,2-a]pyridin-8-yl)isoindolin-2-yl) piperidine-2,6-dione] showed a concentration for half-maximal inhibition (IC50) of under 100 nM. At IKZF2 [1], the inhibition at 0.001 µM is under 30%, the inhibition at 0.01 µM was under 30%, the inhibition at 0.1 µM is under 30% and the inhibition at 1 µM is under 30%. The inhibition at 10 µM at IKZF2 [1] is under 30%.
Compound `O=C1CCC(N2Cc3cc(-c4cc(CN5CCC(C(F)(F)F)CC5)cn5ccnc45)ccc3C2=O)C(=O)N1` (centres unmarked) [Example 37, 3-(1-oxo-5-(6-((4-(trifluoromethyl)piperidin-1-yl)methyl)imidazo[1,2-a]pyridin-8-yl)isoindolin-2-yl) piperidine-2,6-dione] came in with an IC50 at CRBN/DDB1 of under 100 nM. In addition, at IKZF2 [1], the inhibition at 0.001 µM was under 30%, the inhibition at 0.01 µM is under 30%, the inhibition at 0.1 µM was under 30% and the inhibition at 1 µM was under 30%. Further, at IKZF2 [1], the inhibition at 10 µM is under 30%.
As to `O=C1CCC(N2Cc3cc(-c4cc(CNCc5ccccc5Cl)cn5ccnc45)ccc3C2=O)C(=O)N1` (centres unmarked) [Example 38, 3-(5-(6-(((2-chlorobenzyl)amino)methyl)imidazo[1,2-a]pyridin-8-yl)-1-oxoisoindolin-2-yl) piperidine-2,6-dione], the IC50 on CRBN/DDB1 lay in the range of 100 to 500 nM. Besides, at IKZF2 [1], the inhibition at 0.001 µM was under 30%, the inhibition at 0.01 µM was under 30%, the inhibition at 0.1 µM was under 30% and the inhibition at 1 µM is under 30%. For the same compound, the inhibition at 10 µM on IKZF2 [1] was under 30%.
`O=C1CCC(N2Cc3cc(-c4cc(CN5CCCCC5)cn5ccnc45)ccc3C2=O)C(=O)N1` (centres unmarked) [Example 33, 3-(1-oxo-5-(6-(piperidin-1-ylmethyl)imidazo[1,2-a]pyridin-8-yl)isoindolin-2-yl) piperidine-2,6-dione] displayed an IC50 on CRBN/DDB1 of 100 to 500 nM. On IKZF2 [1], the inhibition at 0.001 µM is under 30%, the inhibition at 0.01 µM was over 50%, the inhibition at 0.1 µM was over 50% and the inhibition at 1 µM is over 50%. Besides, the inhibition at 10 µM at IKZF2 [1] was over 50%.
For the compound `O=C1CCC(N2Cc3cc(-c4cc(CN5CCC(F)(F)CC5)cn5ccnc45)ccc3C2=O)C(=O)N1` (centres unmarked) [Example 35, 3-(5-(6-((4,4-difluoropiperidin-1-yl)methyl)imidazo[1,2-a]pyridin-8-yl)-1-oxoisoindolin-2-yl) piperidine-2,6-dione], the half-maximal inhibitory concentration (IC50) at CRBN/DDB1 lay in the range of 100 to 500 nM. Moreover, on IKZF2 [1], the inhibition at 0.001 µM is under 30%, the inhibition at 0.01 µM is under 30%, the inhibition at 0.1 µM is under 30% and the inhibition at 1 µM was under 30%. Moreover, the inhibition at 10 µM on IKZF2 [1] is under 30%.
As for `O=C1CCC(N2Cc3cc(-c4cc(CN5CCC(c6ccccc6)CC5)cn5ccnc45)ccc3C2=O)C(=O)N1` (centres unmarked) [Example 47, 3-(1-oxo-5-(6-((4-phenylpiperidin-1-yl)methyl)imidazo[1,2-a]pyridin-8-yl)isoindolin-2-yl) piperidine-2,6-dione], at CRBN/DDB1, the 50% inhibitory concentration (IC50) is under 100 nM. At IKZF2 [1], the inhibition at 0.001 µM lay in the range of 30 to 50%, the inhibition at 0.01 µM lay within 30 to 50%, the inhibition at 0.1 µM is under 30% and the inhibition at 1 µM was under 30%. Moreover, the inhibition at 10 µM on IKZF2 [1] was under 30%.
`CC(C)(NCc1cc(-c2ccc3c(c2)CN(C2CCC(=O)NC2=O)C3=O)c2nccn2c1)c1ccccc1` (centres unmarked) [Example 46, 3-(1-oxo-5-(6-(((2-phenylpropan-2-yl)amino)methyl)imidazo[1,2-a]pyridin-8-yl)isoindolin-2-yl) piperidine-2,6-dione] showed a half-maximal inhibitory concentration (IC50) on CRBN/DDB1 of 100 to 500 nM. Moreover, on IKZF2 [1], the inhibition at 0.001 µM was under 30%, the inhibition at 0.01 µM is under 30%, the inhibition at 0.1 µM was in the range of 30 to 50% and the inhibition at 1 µM was over 50%. Moreover, at IKZF2 [1], the inhibition at 10 µM was over 50%.
For `O=C1CCC(N2Cc3cc(-c4cc(CN5CCC5)cn5ccnc45)ccc3C2=O)C(=O)N1` (centres unmarked) [Example 34, 3-(5-(6-(azetidin-1-ylmethyl)imidazo[1,2-a]pyridin-8-yl)-1-oxoisoindolin-2-yl) piperidine-2,6-dione], on CRBN/DDB1, the IC50 is under 100 nM. Besides, on IKZF2 [1], the inhibition at 0.001 µM fell in the range of 30 to 50%, the inhibition at 0.01 µM was 30 to 50%, the inhibition at 0.1 µM was over 50% and the inhibition at 1 µM is over 50%. Also, the inhibition at 10 µM at IKZF2 [1] is over 50%.
Compound `O=C1CCC(N2Cc3cc(-c4cc(CNCCc5ccccc5Cl)cc5cncn45)ccc3C2=O)C(=O)N1` (centres unmarked) [Example 21, 3-(5-(7-(((2-chlorophenethyl)amino)methyl)imidazo[1,5-a]pyridin-5-yl)-1-oxoisoindolin-2-yl) piperidine-2,6-dione] showed a concentration for half-maximal inhibition (IC50) at CRBN/DDB1 of 100 to 500 nM. For the same compound, on IKZF2 [1], the inhibition at 0.001 µM was 30 to 50%, the inhibition at 0.01 µM was over 50%, the inhibition at 0.1 µM was over 50% and the inhibition at 1 µM is over 50%. The inhibition at 10 µM at IKZF2 [1] is over 50%.
On to `O=C1CCC(N2Cc3cc(-c4cc(CN5CCCC5)c5ccn(C6COC6)c5n4)ccc3C2=O)C(=O)N1` (centres unmarked) [Example 129, 3-(5-(1-(oxetan-3-yl)-4-(pyrrolidin-1-ylmethyl)-1H-pyrrolo[2,3-b]pyridin-6-yl)-1-oxoisoindolin-2-yl) piperidine-2,6-dione], for which the IC50 on CRBN/DDB1 was 100 to 500 nM. Further, the DC50 at IKZF2 [2] is 1 to 10 nM; on IKZF2 [3], under 1 nM; at IKZF1, 10 to 100 nM. Also, the Dmax at IKZF2 [2] is over 80%; at IKZF2 [3] it was over 80%; on IKZF1 it was 20 to 40%.
As to `O=C1CCC(N2Cc3c(ccc(-c4cc(CN5CCCC5)c5ccn(C6CS(=O)(=O)C6)c5n4)c3F)C2=O)C(=O)N1` (centres unmarked) [Example 222, 3-(5-(1-(1,1-dioxidothietan-3-yl)-4-(pyrrolidin-1-ylmethyl)-1H-pyrrolo[2,3-b]pyridin-6-yl)-4-fluoro-1-oxoisoindolin-2-yl) piperidine-2,6-dione], on CRBN/DDB1, the 50% inhibitory concentration (IC50) was 100 to 500 nM. Further, the figures for the DC50 at IKZF2 [2], at IKZF2 [3] and on IKZF1 were 1 to 10 nM, 1 to 10 nM and 10 to 100 nM, respectively. Moreover, the Dmax on IKZF2 [2] was over 80%; on IKZF2 [3] it was over 80%; on IKZF1, 20 to 40%.
